# Data taken from PMC9025560, “A Comparison of Evans Blue and 4-(p-Iodophenyl)butyryl Albumin Binding Moieties on an Integrin αvβ6 Binding Peptide” (Pharmaceutics, 2022).
# Read-outs that look alike come from different tables or passages of the source.
# Experiments:
# [1] = Biodistribution in mice bearing BxPC-3 xenograft tumors; type: in vivo; conditions: female, athymic nu/nu-nude, mouse, in vivo, total radioactivity; for tissue uptake at 4 h: 4 h p.i.; for tissue uptake at 24 h: 24 h p.i.; for tissue uptake at 48 h: 48 h p.i.
# Procedure, shortened: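 Female athymic nu/nu mice bearing subcutaneous BxPC-3 (integrin αvβ6-positive) flank tumors 0.5–1 cm, given [^64Cu]-labelled peptides (3.7–5.55 MBq) i.v. via tail vein. Tissues taken at 4, 24, 48 and 72 h p.i. and γ-counted; decay-corrected uptake reported as % ID/g, mean ± SD.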
# [2] = system: human serum protein; experiment: Human serum protein binding by ultrafiltration; type: in vitro ADME
# Description: Serum protein binding of [^64Cu]1 and [^64Cu]2 was assessed following the previously reported method. Peptides [^64Cu]1 and [^64Cu]2 were evaluated by ultrafiltration using Centrifree Ultrafiltration devices (EMD) according to the manufacturer’s recommendations. Experiments were carried out in triplicate. The Centrifree Ultrafiltration devices were pretreated with PBS containing Tween 20 (5% v/v), followed by triplicate rinses with PBS. An aliquot of each peptide [^64Cu]1 or [^64Cu]2 in PBS (≤25 μL, 20–60 KBq) was thoroughly mixed with 0.5 mL of serum at 37 °C in a microfuge tube. The mixture was incubated at 37 °C for 5 min, and an aliquot (50 μL) was transferred to a tube for γ-counting. The remaining sample was transferred to a Centrifree Ultrafiltration device and centrifuged for 40 min at 1500 (RCF) at ambient temperature (20–24 °C). An aliquot (50 μL) of the filtrate was transferred to a tube for γ-counting. For each radiolabeled peptide, a blank was run using 0.5 mL PBS/Tween 20 (5% v/v) instead of serum (n = 3) to determine non-specific binding. Following γ-counting, the protein-bound radioactivity was calculated by subtracting the counts measured in the filtrate aliquot (i.e., not protein-bound) from the counts in the corresponding serum aliquot. The data are expressed as mean ± standard deviation of fraction of radioactivity bound to protein after subtraction of non-specific binding determined in the blank.
# [3] = iv, i.v., read-out: Blood uptake
# [4] = iv, i.v., read-out: Bone uptake
# [5] = iv, i.v., read-out: Brain uptake
# [6] = iv, i.v., read-out: BxPC-3 Tumor uptake
# [7] = iv, i.v., read-out: Fecal Matter radioactivity
# [8] = iv, i.v., read-out: Gall Bladder uptake
# [9] = iv, i.v., read-out: Heart uptake
# [10] = iv, i.v., read-out: Kidneys uptake
# [11] = iv, i.v., read-out: Lg. Intestines uptake
# [12] = iv, i.v., read-out: Liver uptake
# [13] = iv, i.v., read-out: Lung uptake
# [14] = iv, i.v., read-out: Muscle uptake
# [15] = iv, i.v., read-out: Pancreas uptake
# [16] = iv, i.v., read-out: Skin uptake
# [17] = iv, i.v., read-out: Sm. Intestines uptake
# [18] = iv, i.v., read-out: Spleen uptake
# [19] = iv, i.v., read-out: Stomach uptake
# [20] = iv, i.v., read-out: Urine radioactivity
smiles,measurement,setting,value
"CC(C)C[C@H](NC(=O)[C@H](CC(=O)O)NC(=O)CNC(=O)[C@H](CCCNC(=N)N)NC(=O)[C@H](CC(C)C)NC(=O)[C@H](CC(N)=O)NC(=O)[C@@H]1CCCN1C(=O)[C@@H](NC(=O)[C@H](C)NC(=O)[C@H](CC(N)=O)NC(=O)CCOCCOCCOCCOCCOCCOCCOCCOCCOCCOCCOCCOCCOCCOCCOCCOCCOCCOCCOCCOCCOCCOCCOCCOCCOCCOCCOCCOCCNC(=O)[C@H](CCCCNC(=O)[C@H](CC(=O)O)NC(=O)CCCNC(=O)CCCc1ccc(I)cc1)NC(=O)CN1CCN(CC(=O)O)CCN(CC(=O)O)CCN(CC(=O)O)CC1)C(C)C)C(=O)N[C@@H](CCC(N)=O)C(=O)N[C@H](C(=O)N[C@@H](CC(C)C)C(=O)N[C@@H](C)C(=O)N[C@@H](CCC(N)=O)C(=O)N[C@@H](CCCNC(=N)N)C(=O)N[C@H](C(=O)N[C@@H](C)C(=O)N[C@@H](CCCNC(=N)N)C(=O)N[C@H](C(=O)NCCOCCOCCOCCOCCOCCOCCOCCOCCOCCOCCOCCOCCOCCOCCOCCOCCOCCOCCOCCOCCOCCOCCOCCOCCOCCOCCOCCOCCC(N)=O)[C@@H](C)O)C(C)C)C(C)C [[^64Cu]2, [^64Cu]Cu DOTA-IP-αvβ6-BP, metal not drawn]",tissue uptake at 4 h,[1]; [3],1.21 ± 0.16 %ID/g
same,tissue uptake at 4 h,[1]; [4],0.59 ± 0.15 %ID/g
same,tissue uptake at 4 h,[1]; [5],0.12 ± 0.002 %ID/g
same,tissue uptake at 4 h,[1]; [6],7.6 ± 0.43 %ID/g
same,tissue uptake at 4 h,[1]; [7],9.32 ± 1.08 %ID/g
same,tissue uptake at 4 h,[1]; [8],4.33 ± 2.64 %ID/g
same,tissue uptake at 4 h,[1]; [9],2.22 ± 0.11 %ID/g
same,tissue uptake at 4 h,[1]; [10],33.6 ± 5.39 %ID/g
same,tissue uptake at 4 h,[1]; [11],9.83 ± 0.69 %ID/g
same,tissue uptake at 4 h,[1]; [12],1.58 ± 0.26 %ID/g
same,tissue uptake at 4 h,[1]; [13],2.25 ± 0.39 %ID/g
same,tissue uptake at 4 h,[1]; [14],0.99 ± 0.3 %ID/g
same,tissue uptake at 4 h,[1]; [15],1.04 ± 0.09 %ID/g
same,tissue uptake at 4 h,[1]; [16],2.72 ± 0.31 %ID/g
same,tissue uptake at 4 h,[1]; [17],9.55 ± 1.21 %ID/g
same,tissue uptake at 4 h,[1]; [18],0.41 ± 0.13 %ID/g
same,tissue uptake at 4 h,[1]; [19],18.1 ± 2.91 %ID/g
same,tissue uptake at 4 h,[1]; [20],25.1 ± 6.79 %ID/g
same,tissue uptake at 24 h,[1]; [3],0.2 ± 0.04 %ID/g
same,tissue uptake at 24 h,[1]; [4],0.28 ± 0.21 %ID/g
same,tissue uptake at 24 h,[1]; [5],0.08 ± 0.01 %ID/g
same,tissue uptake at 24 h,[1]; [6],4.41 ± 1.25 %ID/g
same,tissue uptake at 24 h,[1]; [7],4.58 ± 1.03 %ID/g
same,tissue uptake at 24 h,[1]; [8],5.05 ± 3.56 %ID/g
same,tissue uptake at 24 h,[1]; [9],1.61 ± 0.06 %ID/g
same,tissue uptake at 24 h,[1]; [10],21.9 ± 1.74 %ID/g
same,tissue uptake at 24 h,[1]; [11],5.58 ± 0.94 %ID/g
same,tissue uptake at 24 h,[1]; [12],1.62 ± 0.2 %ID/g
same,tissue uptake at 24 h,[1]; [13],1.69 ± 0.07 %ID/g
same,tissue uptake at 24 h,[1]; [14],0.78 ± 0.22 %ID/g
same,tissue uptake at 24 h,[1]; [15],0.78 ± 0.01 %ID/g
same,tissue uptake at 24 h,[1]; [16],1.48 ± 0.03 %ID/g
same,tissue uptake at 24 h,[1]; [17],4.58 ± 0.62 %ID/g
same,tissue uptake at 24 h,[1]; [18],0.31 ± 0.05 %ID/g
same,tissue uptake at 24 h,[1]; [19],11.1 ± 1.16 %ID/g
same,tissue uptake at 24 h,[1]; [20],1.7 ± 1.91 %ID/g
same,tissue uptake at 48 h,[1]; [3],0.2 ± 0.04 %ID/g
same,tissue uptake at 48 h,[1]; [4],0.24 ± 0.09 %ID/g
same,tissue uptake at 48 h,[1]; [5],0.09 ± 0.01 %ID/g
same,tissue uptake at 48 h,[1]; [6],4.09 ± 1.28 %ID/g
same,tissue uptake at 48 h,[1]; [7],2.67 ± 0.58 %ID/g
same,tissue uptake at 48 h,[1]; [8],2.83 ± 0.86 %ID/g
same,tissue uptake at 48 h,[1]; [9],1.43 ± 0.2 %ID/g
same,tissue uptake at 48 h,[1]; [10],11.8 ± 1.02 %ID/g
same,tissue uptake at 48 h,[1]; [11],3.95 ± 0.81 %ID/g
same,tissue uptake at 48 h,[1]; [12],1.71 ± 0.21 %ID/g
same,tissue uptake at 48 h,[1]; [13],1.33 ± 0.15 %ID/g
same,tissue uptake at 48 h,[1]; [14],0.63 ± 0.07 %ID/g
same,tissue uptake at 48 h,[1]; [15],0.64 ± 0.08 %ID/g
same,tissue uptake at 48 h,[1]; [16],1.22 ± 0.22 %ID/g
same,tissue uptake at 48 h,[1]; [17],2.28 ± 0.1 %ID/g
same,tissue uptake at 48 h,[1]; [18],0.35 ± 0.05 %ID/g
same,tissue uptake at 48 h,[1]; [19],6.4 ± 1.02 %ID/g
same,tissue uptake at 48 h,[1]; [20],3.24 ± 1.03 %ID/g
same,tissue uptake at 72 h,"[1]; iv, 72 h p.i., i.v., read-out: Blood uptake",0.17 ± 0.001 %ID/g
same,tissue uptake at 72 h,"[1]; iv, 72 h p.i., i.v., read-out: Bone uptake",0.26 ± 0.01 %ID/g
same,tissue uptake at 72 h,"[1]; iv, 72 h p.i., i.v., read-out: Brain uptake",0.1 ± 0.02 %ID/g
same,tissue uptake at 72 h,"[1]; iv, 72 h p.i., i.v., read-out: BxPC-3 Tumor uptake",4.91 ± 1.19 %ID/g
same,tissue uptake at 72 h,"[1]; iv, 72 h p.i., i.v., read-out: Fecal Matter radioactivity",2.29 ± 0.53 %ID/g
same,tissue uptake at 72 h,"[1]; iv, 72 h p.i., i.v., read-out: Gall Bladder uptake",3.21 ± 1.02 %ID/g
same,tissue uptake at 72 h,"[1]; iv, 72 h p.i., i.v., read-out: Heart uptake",1.05 ± 0.05 %ID/g
same,tissue uptake at 72 h,"[1]; iv, 72 h p.i., i.v., read-out: Kidneys uptake",11.5 ± 1.02 %ID/g
same,tissue uptake at 72 h,"[1]; iv, 72 h p.i., i.v., read-out: Lg. Intestines uptake",3 ± 0.37 %ID/g
same,tissue uptake at 72 h,"[1]; iv, 72 h p.i., i.v., read-out: Liver uptake",1.3 ± 0.13 %ID/g
same,tissue uptake at 72 h,"[1]; iv, 72 h p.i., i.v., read-out: Lung uptake",1.16 ± 0.22 %ID/g
same,tissue uptake at 72 h,"[1]; iv, 72 h p.i., i.v., read-out: Muscle uptake",0.76 ± 0.24 %ID/g
same,tissue uptake at 72 h,"[1]; iv, 72 h p.i., i.v., read-out: Pancreas uptake",0.57 ± 0.06 %ID/g
same,tissue uptake at 72 h,"[1]; iv, 72 h p.i., i.v., read-out: Skin uptake",0.92 ± 0.14 %ID/g
same,tissue uptake at 72 h,"[1]; iv, 72 h p.i., i.v., read-out: Sm. Intestines uptake",1.24 ± 0.11 %ID/g
same,tissue uptake at 72 h,"[1]; iv, 72 h p.i., i.v., read-out: Spleen uptake",0.38 ± 0.14 %ID/g
same,tissue uptake at 72 h,"[1]; iv, 72 h p.i., i.v., read-out: Stomach uptake",3.14 ± 0.62 %ID/g
same,tissue uptake at 72 h,"[1]; iv, 72 h p.i., i.v., read-out: Urine radioactivity",1.46 ± 1.17 %ID/g
same,tissue uptake at 72 h,"[1]; 72 h, read-out: GI uptake",< 3.2 %ID/g
same,tissue uptake,"[1]; throughout 4–72 h, read-out: Liver uptake throughout",< 3 %ID/g
same,Binding to human serum protein,"[2]; 37 °C, ultrafiltration",63.3 ± 1.5%
same,Serum albumin binding,"[2]; abstract, serum species not stated",42–44%
